This is an account of results in patent publication US7026356B2, “Fatty acid analogues for the treatment of diseases caused by the pathological proliferation of smooth muscle cells” (priority 1998, dated 2006).

Series [1] is described as follows: Local administration of radiolabelled TTA, presence in coronary arteries. The class given is in vivo. As to conditions: administered locally in two extra pigs; after 4 and 6 weeks.
The test system of series [2] is strains of Escherichia coli. As to the kind of experiment: Tests for mutagenic activity in bacterial strains. The series is classed as cell-based. As to conditions: E. coli; 3–1000 mg/plate (TTA), 2–5000 mg/plate (TSA). An excerpt: (§1) Tests for mutagenic activity have been performed by Covance Laboratories Limited, England. […] Furthermore, TTA was not mutagenic when tested in mouse lymphoma cells […] L5178Y.

Series [3] relates to strains of Salmonella typhimurium. As to the kind of experiment: Tests for mutagenic activity in bacterial strains. The class given is cell-based. As to conditions: S. typhimurium; 3–1000 mg/plate (TTA), 2–5000 mg/plate (TSA).
Description: as §1

Series [4] has as its system cultured Chinese hamster ovary cells. As to the kind of experiment: Chromosomal aberrations in cultured Chinese hamster ovary cells. As to conditions: CHO cells, doses tested 12–140 mg/ml. The series is classed as cell-based.
The nature of series [5]: Plasma lipid lowering on feeding moderate doses to animals. As to conditions: for potency in lowering plasma triacylglycerols and cholesterol: compared with polyunsaturated fatty acids like EPA. The series is classed as in vivo, rats, mice, rabbits and dogs. The text has this:
(§2) Feeding moderate doses of TTA to animals like rats, mice, rabbits and dogs decreased both plasma cholesterol and triacylglycerol levels within days of treatment.

A short description of series [6]: 28 days toxicity study in dogs (GLP). The series is classed as in vivo. The text has this: A 28 days toxicity study in dogs according to GLP guide-lines has been performed by Corning Hazleton (Europe), England. […] Some lipid related parameters were lowered in the animals given high dosages. This is consistent with the pharmacological activity of TTA.
Series [7] concerns mouse lymphoma cells, L5178Y. As to the kind of experiment: Mutagenicity in mouse lymphoma cells. The class given is cell-based. As to conditions: 2.5–50 mg/ml.
Description: as §1

In series [8] the test system is restenosis (iliac artery). As to the kind of experiment: Prevention of restenosis in rabbits given TTA orally, quantitative angiography after iliac balloon angioplasty. The class given is in vivo, Chinchilla (Chbb:CH) rabbits. As to conditions: for diameter artery (Ds) / dilatation/stenosis (Dr − Ds)/Dr / reference diameter (Dr): TTA 800 mg daily oral. As for the experimental part:
Fourteen Chinchilla (Chbb:CH) rabbits of either sex were randomised either to receive supplement with TTA fatty acids 800 mg daily (mean weight 3.6±0.09 kg) or to placebo (mean weight 3.5±0.47 kg).
The animals were pre-treated with TTA given as oral supplements, mixed with daily food pellets, for three weeks to ensure accumulation of the fatty acid analogues in the tissues.
After premedication with 0.5 ml fentanyl (0.315 mg/ml) and fluanisone (10 mg/ml) (Hypnorm®) intramuscularly, the rabbits were anaesthetised by administering diazepam 4 mg/kg intraperitoneally and maintained by additional 0.3–0.4 ml of a 1:1 mixture of Hypnorm® and diazepam, usually necessary once during the procedure.
After local infiltration of the skin by lignocaine (Xylocaine®) and surgical cut-down, the right carotid artery was cannulated by a 6F sheath. A bolus of 100 U/kg of heparin was administered intraarterially. Before the angioplasty, an angiography was performed in the frontal view by injecting 3 ml of ioxaglate (Hexabrix®) as contrast medium via a Berman® catheter.
An angioplasty balloon catheter (Express®) of 2.5 mm was positioned in the proximal part of each iliac artery and balloon angioplasty was performed with 2 balloon inflations at the same site in each artery, at 8 and 12 atmosphere for 30 seconds each to overstretch the artery. The balloon marker, on the middle of the 20 mm long balloon, was placed over the ilio-sacral joint, thus ensuring that the balloon was positioned at identical sites. Inflation was performed using a pressure manometer (Encore® 26 inflation device, Scimed, Boston Scientific corporation).
A further angiography was performed in the same frontal view as the first angiography to assure artery patency. The carotid artery was ligated and the skin was closed with ligatures. Buprenorfin 0.3 mg (Temgesic®) and penicillin were given subcutaneous once daily for the first days.
(§3) A follow-up angiography was performed in the same frontal view after 10 weeks, following the same procedure as indicated above, by using ioxaglate (Hexabrix®) as contrast medium. The sheath was now inserted in the left carotid artery. Intravascular ultrasound was performed to quantitate wall thickness and lumen diameter. After angiography a laparotomy was performed and the abdominal aorta was cannulated with an 18G infusion-needle. The animals were euthanised by giving overdose pentobarbital intraarterially via the sheath in the left carotid artery.
The frames with maximal opacification from baseline angiographies (before and after dilatation), as well as from the follow-up angiography were stored for subsequent quantitative analysis. Arterial diameter before and after dilatation as well as the balloon to artery ratio were measured. The minimal luminal diameter, reference diameter and stenosis were determined. All measurements were performed with a digital electronic calliper (Sandhill, model EC-1)(12). A balloon angioplasty catheter (Express® 2.5 mm), placed on the abdomen and dilated at 8 atmospheres (rated balloon diameter 2.5 mm) served for calibration.
Acute gain: minimal luminal diameter (MLD) post dilatation minus diameter artery before dilatation. Late loss: MLD post dilatation minus MLD at control angiography. Loss index: late loss divided by acute gain.

For series [9], the system named is restenosis (coronary artery, LAD or LCx). As to the kind of experiment: Prevention of restenosis in mini pigs, local administration of TTA, quantitative angiography and histology. The class given is in vivo. As to conditions: minipigs; for Luminal diameter: local TTA 3 x 0.5 ml (0.33 mg/ml). The text has this: (§4) Various local drug delivery systems have been developed to enable local application of pharmacological agents in conjunction with PTCA. In this study 20 minipigs were randomised to placebo or active treatment with the fatty acid analogue tetradecylthioaceticacid acid (TTA) via a Transport® multiphorous angioplasty balloon catheter. This catheter has a sleeve embracing the balloon and the drug is delivered through a separate lumen connected to the sleeve which has multiple holes.
(§5) Coronary balloon angioplasty injury using an oversized balloon was performed to the LAD or LCx followed by 3 bolus deliveries of 0.5 ml (0.33 mg/ml TTA) of active drug/placebo. Quantitative angiography as indicated in the preceding sections was performed before and after injury, and after 4 weeks follow-up. Subsequently the pigs were sacrificed, perfusion-fixed with glutaraldehyde and the vessels prepared for histology with computer assisted planimetry.

The test system of a further series is restenosis. In words: IVUS (intravascular ultrasound) after balloon injury. The class given is in vivo, minipigs. As for the experimental part: as §3, §4, §5
The ICUS (intracoronary ultrasound) results were consistent with the angiography data.

For series [10], the system named is human smooth muscle cells (SMC). In words: Proliferation of cultured smooth muscle cells (cell counting). The series is classed as cell-based. As to conditions: 100 μM with BSA, cells counted after 3 and 6 days, FIG. 3. As for the experimental part:
SMC are human smooth muscle cells available from American Type Culture Collection (Type 1999-CRL). The SMC cells were cultured in bottles (75 cm^2) in Ham's F12K medium. 24 hours after inoculation, the fatty acids and BSA in a molar ratio of 1:2.5 were added to the medium, i.e. to a final concentration of palmitic acid and TTA of 100 μM. After 3 and 6 days the cells were trypsinated, and the number of cells determined by using a light microscopy with counting chambers (Leitz Wetzler).

Series [11] in a line: Total plasma homocysteine in rats given TTA. The series is classed as in vivo. As to conditions: Male Wistar rats, 300 mg TTA per kg body weight per day in 10 days. As for the experimental part: Increased levels of homocysteine, i.e. hyperhomocysteinemia has been proposed to be associated with arterial diseases, and we thus measured the levels of homocysteine in plasma samples from Male Wistar rats given 300 mg TTA per kg body weight per day in 10 days.
Total plasma homocysteine was measured by a fully automated fluorescence assay. 30 μl plasma was reduced by 30 μl NaBH4/DMSO solution (6 mol/L). After 1.5 min 20 μl of the fluorescence reagent monobromobimane (25 mmol/L) in acetonitrile was added and allowed to react for 3 min. 20 μl of the sample was then immediately analysed with HPLC by injection on a strong cation-exchange column, and then by column switching into a cyclohexyl silica column. The SCX column was eluted isocratically and the CH column was eluted with a linear methanol gradient (17–35% in 5 min) in 20 mmol/L formate buffer. The homocysteine was eluted at a retention time of 4.5 min.

Series [12] in a line: Hepatic and plasma fatty acid composition after TTA administration to rats. The series is classed as in vivo. As to conditions: 12 weeks. An excerpt: Thus the compound of the present invention modifies the composition of the lipids in various tissues.
Series [13] has as its system mitochondrial β-oxidation system. As to the kind of experiment: Mitochondrial β-oxidation.
Description: The studies have shown that TTA has properties very similar to natural fatty acids, the main difference being that TTA is not oxidised by the mitochondrial β-oxidation system.
as §2

[14] abbreviates: control angiography (follow-up).
[15] abbreviates: moderate doses, within days of treatment.

On to `CCCCCCCCCCCCCCSC[14C](=O)O` [1-^14C-TTA], for which the “presence of active drug in the coronary arteries” value in series [1] was “confirmed the presence of active drug”.

Consider `CCCCCCCCCCCCCC[Se]CC(=O)O` [TSA, tetradecylselenioacetic acid], for which the induction of mutations entry in series [2] and in [3] was “did not induce mutations” throughout. For the same molecule, in series [4], the chromosomal aberrations entry is “no aberrations were induced”. Also, in [5], the “potency in lowering plasma triacylglycerols and cholesterol” value was “far more potent”.

Take Tetradecylthioacetic acid [TTA]: in series [6] (500 mg/kg/day), the body weight entry is “body weight loss”. For the same molecule, the lipid related parameters result in [6] (animals given high dosages) is “lowered”. For the same molecule, the evidence of toxicity entry in series [6] (dose levels of 50 or 500 mg/day/kg) is “no evidence of toxicity”. The “tolerability of oral administration” value in [6] (oral, dose levels up to 500 mg/kg/day) was “generally well tolerated”. The induction of mutations result in series [2] is “did not induce mutations”. Further, the induction of mutations entry in series [3] is on record as “did not induce mutations”. Also, the mutagenicity entry in [7] is reported as “not mutagenic”. The chromosomal aberrations entry in series [4] is “no aberrations were induced”. In [8] (MLD post dilatation minus MLD at control angiography), this molecule had a late loss of 0.76 ± 0.38. The same molecule displayed an acute gain in [8] (MLD post dilatation minus diameter artery before dilatation) of 0.48 ± 0.22 mm. In series [8] (after dilatation), the “diameter artery (Ds)” value was found to be 2.36 ± 0.19 mm, the “dilatation/stenosis (Dr − Ds)/Dr” value is recorded as −31.2 and the “reference diameter (Dr)” value worked out at 1.80 ± 0.17 mm. Besides, in series [8] (before dilatation), the “diameter artery (Ds)” value was 1.91 ± 0.18 mm and the “reference diameter (Dr)” value stood at 1.91 ± 0.18 mm. In series [8] (setting [14]), the “diameter artery (Ds)” value came to 1.60 ± 0.26 mm, the “dilatation/stenosis (Dr − Ds)/Dr” value came to 23.5 and the “reference diameter (Dr)” value came to 2.07 ± 0.15 mm. Also, the “decrease in artery diameter at follow-up” value in series [8] (follow-up after angioplasty, oral TTA) is “inhibited the decrease in artery diameter”. The loss index in [8] (late loss divided by acute gain) was found to be 1.53 ± 0.46. This molecule showed a Luminal diameter in [9] (after PTCA) of 3.2 mm. For the same molecule, in [9] (at follow-up), the Luminal diameter was determined as 2.2 mm. This molecule also yielded a Luminal diameter in series [9] (before PTCA) of 2.6 mm. In addition, the maximal intimal thickness result in [9] (treated group with respect to the placebo group) is “unchanged”. Moreover, in the series on restenosis, the Area site came out at 0.61 ± 0.152 mm^2, the Max. diameter site came to 2.87 ± 0.408 mm and the Minimal diameter site is reported as 2.76 ± 0.381 mm. For the same molecule, the “growth of smooth muscle cells” value in series [10] is “inhibiting effect”. The “Plasma concentration of homocysteine” value in series [11] was found to be 5.4 ± 1.0 µmol/L. For the same molecule, in series [12], the “hepatic and plasma content of monounsaturated fatty acids (mainly oleic acid)” value is recorded as “nearly doubled”; the “polyunsaturated fatty acids (mainly linoleic acid and DHA)” value is reported as “decreased”. The “potency in lowering plasma triacylglycerols and cholesterol” value in series [5] is “far more potent”. Besides, in series [5] (setting [15]), the plasma cholesterol levels entry is “decreased” and the plasma triacylglycerol levels result is recorded as “decreased”. For the same molecule, in [13], the “oxidation by the mitochondrial β-oxidation system” value is on record as “not oxidised”.
